pKd, pKi: −log10 of the molar value. Like-named read-outs stand apart in the source and are kept apart here.
Tests used:
[1] = target: Aβ fibrils; settings: read-out: Kd and Ki values, Aβ, in vitro generated Aβ fibrils, cited from earlier work
[2] = target: T1, α-synuclein (AS) filaments (Homo sapiens, UniProt P37840); test: Radioligand competition assay of α-synuclein; format: binding; settings: for displacement of the radioligand from the AS filaments: [3H]-Me-BTA1 radioligand, Fig. 3b
[3] = target: T1, α-synuclein (AS) filaments; test: Radioligand binding assay of α-synuclein

fold weaker binding than BF1 ([2]; Ki relative to BF1)	displacement of the radioligand from the AS filaments [2]	pKd [3]	Compound	pKd ([1]; ref Lockhart et al. 2005)	pKi ([1]; ref Ye et al. 2005)	pKi ([1]; ref Lockhart et al. 2005)
			CNc1ccc(-c2nc3ccc(C)cc3s2)cc1 [Me-BTA1, 2-[4′-(methylamino)phenyl]-6-methylbenzothiazole]	8.38		
around fourfold weaker	dose-dependent displacement	8.38	CNc1ccc(-c2nc3ccc(O)cc3s2)cc1 [PIB, 2-[4′-(methylamino)phenyl]-6-hydroxybenzothiazole]		7.60	
	dose-dependent displacement		CN(C)c1ccc(-c2cc3cc(Br)ccc3o2)cc1 [BF1, 5-bromo-2-(4-dimethylaminophenyl)benzofuran]			8.52

Reference: PMC2408655 (Journal of Neurochemistry, 2008)
